Laboratory results taken from patent US11369568B2, “Microparticles comprising a sulphur-containing compound” (NOVABIOTICS LIMITED, priority 2016, dated 2022).

How the values were obtained:
P. aeruginosa ATCC27853 = experiment: Mouse IN neutropenic lung burden model, Lynovex/Lactose study; type: in vivo, Pseudomonas aeruginosa; conditions: CD1 mice, 24 h post-infection
Method: Animals were immunosuppressed/pre-conditioned with either 200 mg/kg or 150 mg/kg cyclophosphamide. Lynovex, chemical name cysteamine, and vehicle were either prepared either as Lynovex and lactose vehicle, or Lynovex and mannitol-based vehicle (both provided by Upperton (Upperton product)). These were prepared for treatment and vehicle-control alone respectively, and in combination. Tobramycin was prepared as an inhalation formulation in lactose. All treatments were administered using a Penn Century device. Phosphate buffered saline (PBS) and Pseudomonas selective agar were required for bacterial tissue burden.
(§1) Male CD1 mice (n =6 for treatment groups, plus five in pre-treatment group, totalling 35 mice) were used in this study. On day −4, the mice were immunosuppressed/pre-conditioned with 200 mg/kg cyclophosphamide intraperitoneally; and with 150 mg/kg cyclophosphamide intraperitoneally on day-1. An infection was established with P. aeruginosa ATCC27853, with an inoculum of 5×10^6 cfu/ml, administered intranasally in a volume of 40 μl following anaesthetisation with a ketamine/xylazine anaesthetic cocktail for 15 minutes, for the Lynovex prepared in lactose study, and an inoculum of 4×10^6 for the Upperton Lynovex product.
Treatment. All treatments were administered intratracheally using a Penn Century device.
Lynovex (cysteamine) was administered at 1.5 mg alone, and in combination with lactose at the following concentrations: Lynovex 0.75 mg+2.25 mg lactose powder, Lynovex 1.5 mg+1.5 mg lactose powder, Lynovex 2.25 mg+0.75 mg, along with a vehicle only control of 3 mg lactose. In addition, Tobramycin at 188 μg/dose was administered, as an inhaled formulation which was mixed with lactose to aid measurement. The treatments were administered approximately 5 minutes after infection.
The lung tissue burden of each animal, at the clinical end point of 24 h post-infection, was determined. The lungs were homogenised in 2 ml PBS, serially diluted in PBS and plated onto Pseudomonas selective agar before quantification after 24-48 h at 37° C.

[1] = Mouse weights recorded before and after infection; type: in vivo; conditions: infected CD1 mice, Upperton product study (FIG. 6)
Method: as §1
In a different study, Lynovex was administered at the following doses: 3 mg 5% Lynovex and 3 mg 10% Lynovex. Lynovex in combination with Tobramycin as follows: 3 mg 5% Lynovex+Tobramycin 0.188 mg in 1.5 mg vehicle, 3 mg 10% Lynovex+Tobramycin 0.188 mg in 1.5 mg Vehicle (mannitol-based, provided by Upperton) and a Tobramycin only control (0.188 mg/dose in lactose vehicle). The treatments were administered once approximately 10 minutes after infection.
Additionally, mouse weights were recorded before and after infection. Mice treated with vehicle, Lynovex monotherapy or Tobramycin monotherapy lost weight following infection. […]

NCCS [Lynovex, cysteamine]
lung burden compared to vehicle (P. aeruginosa ATCC27853; 1.5 mg intratracheal, P=0.0072): reduced the lung burden
lung burden compared to vehicle (P. aeruginosa ATCC27853; 2.25 mg intratracheal, P=0.0349): reduced the lung burden

NC[C@H]1O[C@H](O[C@H]2[C@H](O)[C@@H](O[C@H]3O[C@H](CO)[C@@H](O)[C@H](N)[C@H]3O)[C@H](N)C[C@@H]2N)[C@H](N)C[C@@H]1O [Tobramycin]
mouse weight following infection [1]: lost weight
lung burden compared with vehicle-treated mice (P. aeruginosa ATCC27853; 0.188 mg inhalation formulation, intratracheal, P=0.0097 Kruskal Wallis test): statistically significant reduction in lung burden
